This note sets out measurements from patent publication US8450270B2 (Indiana University Research and Technology Corporation, priority 2008, dated 2013).

Square brackets hold non-standard residues; d marks the D form. Ends that are not written are not given here. Peptide text beside a SMILES is read from it. Dab = NCC[C@H](N)C(=O)O; Aib = CC(C)(N)C(=O)O

Usually EC50 stands for the concentration giving half of the maximal effect. Low readings indicate greater potency, high ones weaker potency.

Series [1] deals with GLP-1 Receptor (Homo sapiens, UniProt P43220). Nature of the series: Functional assay-cAMP synthesis (luciferase reporter, HEK293), GLP-1 receptor. On the technique in general: In a reporter assay the amount or activity of a reporter protein is the signal.
Excerpt: (§1) The luminescent light output indicates activation of the luciferase reporter gene, which in turn is a measure of the activation of the receptor.
A short description of series [2]: Glucagon solubility assay. The class given is physicochemical.
Series [3] concerns the target Glucagon Receptor (Homo sapiens, UniProt P47871). As to the kind of experiment: Functional assay-cAMP synthesis (luciferase reporter, HEK293), glucagon receptor. To be noted: for % activity*: glucagon receptor.
Excerpt: as §1
Setting [4] is: Table 8, wildtype glucagon = 100.
Setting [5] is: EC50 at Glucagon Receptor (nM), Table 7.

Chain of Glucagon Receptor (P47871 26-477): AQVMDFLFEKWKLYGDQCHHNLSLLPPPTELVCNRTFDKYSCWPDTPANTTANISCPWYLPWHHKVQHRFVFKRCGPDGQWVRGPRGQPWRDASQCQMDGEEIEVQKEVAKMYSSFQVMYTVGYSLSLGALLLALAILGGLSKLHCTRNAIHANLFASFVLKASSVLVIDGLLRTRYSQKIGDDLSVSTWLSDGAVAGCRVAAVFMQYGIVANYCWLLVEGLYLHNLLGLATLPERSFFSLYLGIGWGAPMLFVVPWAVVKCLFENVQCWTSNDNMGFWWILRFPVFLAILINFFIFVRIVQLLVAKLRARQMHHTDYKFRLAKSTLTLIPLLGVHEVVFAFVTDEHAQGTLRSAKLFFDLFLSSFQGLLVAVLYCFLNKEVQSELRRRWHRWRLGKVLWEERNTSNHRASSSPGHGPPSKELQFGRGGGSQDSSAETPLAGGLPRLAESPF
Chain of GLP-1 Receptor (P43220 24-463, species assumed): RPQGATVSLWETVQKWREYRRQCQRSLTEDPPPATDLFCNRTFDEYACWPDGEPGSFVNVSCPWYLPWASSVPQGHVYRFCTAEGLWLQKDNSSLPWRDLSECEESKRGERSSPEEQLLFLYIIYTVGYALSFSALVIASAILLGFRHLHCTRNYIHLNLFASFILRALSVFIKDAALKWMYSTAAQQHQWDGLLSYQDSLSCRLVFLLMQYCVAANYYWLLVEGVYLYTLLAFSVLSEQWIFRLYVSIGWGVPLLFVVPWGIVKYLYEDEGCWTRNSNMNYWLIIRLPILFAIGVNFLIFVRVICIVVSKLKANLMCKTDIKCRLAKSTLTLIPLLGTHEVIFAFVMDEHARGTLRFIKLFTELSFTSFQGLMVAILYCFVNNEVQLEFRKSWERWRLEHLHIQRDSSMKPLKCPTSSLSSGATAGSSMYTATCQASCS

Turning to `CCCCCCCCCCCCCC(=O)NCCCC[C@H](NC(=O)[C@H](CC(=O)O)NC(=O)[C@H](CO)NC(=O)[C@@H](NC(=O)[C@H](Cc1ccccc1)NC(=O)[C@@H](NC(=O)CNC(=O)[C@H](CCC(N)=O)NC(=O)[C@@H](CO)NC(=O)[C@@H](N)Cc1c[nH]cn1)[C@@H](C)O)[C@@H](C)O)C(=O)N[C@@H](CO)C(=O)N[C@@H](CCCCN)C(=O)N[C@@H](Cc1ccc(O)cc1)C(=O)N[C@@H](CC(C)C)C(=O)N[C@@H](CC(=O)O)C(=O)N[C@@H](CCC(=O)O)C(=O)N[C@@H](CCCNC(=N)N)C(=O)N[C@@H](CCCNC(=N)N)C(=O)N[C@@H](C)C(=O)N[C@@H](CCCCN)C(=O)N[C@@H](CC(=O)O)C(=O)N[C@@H](Cc1ccccc1)C(=O)N[C@H](C(=O)N[C@@H](CCC(N)=O)C(=O)N[C@@H](Cc1c[nH]c2ccccc12)C(=O)N[C@@H](CC(C)C)C(=O)N[C@@H](CCSC)C(=O)N[C@@H](CC(N)=O)C(=O)N[C@H](C(N)=O)[C@@H](C)O)C(C)C` [Peptide dS2K10(C14)E16K20-Gluc Amide, HXQGTFTSDKSKYLDERRAKDFVQWLMNT-amide], the EC50 in series [1] is 0.041 nM.
Consider “HSQGTFTSDYSKYLESRRAQDFVQWLMDT [D28, E15]”, for which the “solubility relative to native glucagon” value in series [2] (pH values of 5.5 and 7.0, FIGS. 3 & 4) is on record as “superior solubility”.
`CSCC[C@H](NC(=O)[C@H](CC(C)C)NC(=O)[C@H](Cc1c[nH]c2ccccc12)NC(=O)[C@H](CCC(N)=O)NC(=O)[C@@H](NC(=O)[C@H](Cc1ccccc1)NC(=O)[C@H](CC(=O)O)NC(=O)[C@H](CCC(N)=O)NC(=O)[C@H](C)NC(=O)[C@H](CCCNC(=N)N)NC(=O)[C@H](CCCNC(=N)N)NC(=O)C(C)(C)NC(=O)[C@H](CC(=O)O)NC(=O)[C@H](CC(C)C)NC(=O)[C@H](Cc1ccc(O)cc1)NC(=O)[C@H](CCCCN)NC(=O)[C@H](CO)NC(=O)[C@H](Cc1ccc(O)cc1)NC(=O)[C@H](CC(=O)O)NC(=O)[C@H](CO)NC(=O)[C@@H](NC(=O)[C@H](Cc1ccccc1)NC(=O)[C@@H](NC(=O)CNC(=O)[C@H](CCC(N)=O)NC(=O)[C@H](CO)NC(=O)[C@@H](N)Cc1c[nH]cn1)[C@@H](C)O)[C@@H](C)O)C(C)C)C(=O)N[C@@H](CC(=O)O)C(=O)N[C@@H](CCC(=O)O)C(=O)O` [AIB16/D28/E29 Glucagon] (H-HSQGTFTSDYSKYLD[Aib]RRAQDFVQWLMDE-OH; N-terminus and C-terminus assumed) came in with an EC50 in series [3] (EC50 at the glucagon receptor, Example 20) of 0.08 nM.
On to `CC(=O)NCC[C@H](NC(=O)[C@H](CO)NC(=O)[C@@H](N)Cc1c[nH]cn1)C(=O)NCC(=O)N[C@H](C(=O)N[C@@H](Cc1ccccc1)C(=O)N[C@H](C(=O)N[C@@H](CO)C(=O)N[C@@H](CC(=O)O)C(=O)N[C@@H](Cc1ccc(O)cc1)C(=O)N[C@@H](CO)C(=O)N[C@@H](CCCCN)C(=O)N[C@@H](Cc1ccc(O)cc1)C(=O)N[C@@H](CC(C)C)C(=O)N[C@@H](CC(=O)O)C(=O)NC(C)(C)C(=O)N[C@@H](CCCNC(=N)N)C(=O)N[C@@H](CCCNC(=N)N)C(=O)N[C@@H](C)C(=O)N[C@@H](C)C(=O)N[C@@H](CC(=O)O)C(=O)N[C@@H](Cc1ccccc1)C(=O)N[C@H](C(=O)N[C@@H](C)C(=O)N[C@@H](Cc1c[nH]c2ccccc12)C(=O)N[C@@H](CC(C)C)C(=O)N[C@@H](CC(C)C)C(=O)N[C@@H](CC(=O)O)C(=O)N[C@H](C(=O)NCC(=O)N1CCC[C@H]1C(=O)N[C@@H](CO)C(=O)N[C@@H](CO)C(=O)NCC(=O)N[C@@H](C)C(=O)N1CCC[C@H]1C(=O)N1CCC[C@H]1C(=O)N1CCC[C@H]1C(=O)N[C@@H](CO)C(N)=O)[C@@H](C)O)C(C)C)[C@@H](C)O)[C@@H](C)O` [SEQ ID NO: 72] (H-HS[Dab](Ac)GTFTSDYSKYLD[Aib]RRAADFVAWLLDTGPSSGAPPPS-NH2; N-terminus assumed), for which the “% activity*” value in series [3] (setting [4]) turned out to be 113%.
On to `CCCCCCCCCCCCCCCC(=O)NCCCC[C@H](NC(=O)[C@H](CC(=O)O)NC(=O)[C@H](CO)NC(=O)[C@@H](NC(=O)[C@H](Cc1ccccc1)NC(=O)[C@@H](NC(=O)CNC(=O)[C@H](CCC(N)=O)NC(=O)[C@@H](CO)NC(=O)[C@@H](N)Cc1c[nH]cn1)[C@@H](C)O)[C@@H](C)O)C(=O)N[C@@H](CO)C(=O)N[C@@H](CCCCN)C(=O)N[C@@H](Cc1ccc(O)cc1)C(=O)N[C@@H](CC(C)C)C(=O)N[C@@H](CC(=O)O)C(=O)N[C@@H](CCC(=O)O)C(=O)N[C@@H](CCCNC(=N)N)C(=O)N[C@@H](CCCNC(=N)N)C(=O)N[C@@H](C)C(=O)N[C@@H](CCCCN)C(=O)N[C@@H](CC(=O)O)C(=O)N[C@@H](Cc1ccccc1)C(=O)N[C@H](C(=O)N[C@@H](CCC(N)=O)C(=O)N[C@@H](Cc1c[nH]c2ccccc12)C(=O)N[C@@H](CC(C)C)C(=O)N[C@@H](CCSC)C(=O)N[C@@H](CC(N)=O)C(=O)N[C@H](C(N)=O)[C@@H](C)O)C(C)C` [Peptide dS2K10(C16)E16K20-Gluc Amide, HXQGTFTSDKSKYLDERRAKDFVQWLMNT-amide], for which, in series [1], the EC50 was found to be 0.041 nM.
For the molecule `CCCC[C@H](NC(=O)[C@H](CC(C)C)NC(=O)[C@H](Cc1c[nH]c2ccccc12)NC(=O)[C@H](C)NC(=O)[C@@H](NC(=O)[C@H](Cc1ccccc1)NC(=O)[C@H](CCC(=O)O)NC(=O)[C@H](C)NC(=O)[C@H](C)NC(=O)[C@H](CCCNC(=N)N)NC(=O)[C@H](CCCNC(=N)N)NC(=O)[C@@H](NC(=O)[C@H](CC(=O)O)NC(=O)[C@H](CC(C)C)NC(=O)[C@H](Cc1ccc(O)cc1)NC(=O)[C@H](CCCCN)NC(=O)[C@H](CO)NC(=O)[C@H](Cc1ccc(O)cc1)NC(=O)[C@H](CC(=O)O)NC(=O)[C@H](CO)NC(=O)[C@@H](NC(=O)[C@H](Cc1ccccc1)NC(=O)[C@@H](NC(=O)CNC(=O)[C@H](CSCNC(C)=O)NC(=O)[C@H](CO)NC(=O)[C@@H](N)Cc1c[nH]cn1)[C@@H](C)O)[C@@H](C)O)[C@@H](C)O)C(C)C)C(=O)N[C@@H](CC(=O)O)C(=O)N[C@@H](CCC(=O)O)C(=O)O` [SEQ ID NO: 62], a half-maximal response in series [3] (setting [5]) (EC50) required 0.18 nM. Besides, in series [3] (Table 7), the “% activity*” value is 33%.
Take `CC(=O)NCC[C@H](NC(=O)[C@H](CO)NC(=O)[C@@H](N)Cc1c[nH]cn1)C(=O)NCC(=O)N[C@H](C(=O)N[C@@H](Cc1ccccc1)C(=O)N[C@H](C(=O)N[C@@H](CO)C(=O)N[C@@H](CC(=O)O)C(=O)N[C@@H](Cc1ccc(O)cc1)C(=O)N[C@@H](CO)C(=O)N[C@@H](CCCCN)C(=O)N[C@@H](Cc1ccc(O)cc1)C(=O)N[C@@H](CC(C)C)C(=O)N[C@@H](CC(=O)O)C(=O)NC(C)(C)C(=O)N[C@@H](CCCNC(=N)N)C(=O)N[C@@H](CCCNC(=N)N)C(=O)N[C@@H](C)C(=O)N[C@@H](CO)C(=O)N[C@@H](CC(=O)O)C(=O)N[C@@H](Cc1ccccc1)C(=O)N[C@H](C(=O)N[C@@H](CO)C(=O)N[C@@H](Cc1c[nH]c2ccccc12)C(=O)N[C@@H](CC(C)C)C(=O)N[C@@H](CC(C)C)C(=O)N[C@@H](CC(=O)O)C(=O)N[C@@H](CCC(=O)O)C(=O)O)C(C)C)[C@@H](C)O)[C@@H](C)O` [SEQ ID NO: 73] (H-HS[Dab](Ac)GTFTSDYSKYLD[Aib]RRASDFVSWLLDE-OH; N-terminus and C-terminus assumed): the “% activity*” value in series [3] (setting [4]) is 54%.
`CCCC[C@H](NC(=O)[C@H](CC(C)C)NC(=O)[C@H](Cc1c[nH]c2ccccc12)NC(=O)[C@H](C)NC(=O)[C@@H](NC(=O)[C@H](Cc1ccccc1)NC(=O)[C@H](CCC(=O)O)NC(=O)[C@H](C)NC(=O)[C@H](C)NC(=O)[C@H](CCCNC(=N)N)NC(=O)[C@H](CCCNC(=N)N)NC(=O)[C@@H](NC(=O)[C@H](CC(=O)O)NC(=O)[C@H](CC(C)C)NC(=O)[C@H](Cc1ccc(O)cc1)NC(=O)[C@H](CCCCN)NC(=O)[C@H](CO)NC(=O)[C@H](Cc1ccc(O)cc1)NC(=O)[C@H](CC(=O)O)NC(=O)[C@H](CO)NC(=O)[C@@H](NC(=O)[C@H](Cc1ccccc1)NC(=O)[C@@H](NC(=O)CNC(=O)[C@H](CNC(N)=O)NC(=O)[C@H](CO)NC(=O)[C@@H](N)Cc1c[nH]cn1)[C@@H](C)O)[C@@H](C)O)[C@@H](C)O)C(C)C)C(=O)N[C@@H](CC(=O)O)C(=O)N[C@@H](CCC(=O)O)C(=O)O` [SEQ ID NO: 64] yielded an EC50 in series [3] (setting [5]) of 0.48 nM. Moreover, in series [3] (Table 7), the “% activity*” value amounted to 13%.
Turning to “Glucagon, Cys17PEG5K: Glucagon Cys17(1-29) reacted with methoxy poly(ethyleneglycol) maleimide avg. M.W.5000”, the “Percent Soluble” value in series [2] (pH 7) is recorded as 94%.
For the molecule `CSCC[C@H](NC(=O)[C@H](CC(C)C)NC(=O)[C@H](Cc1c[nH]c2ccccc12)NC(=O)[C@H](C)NC(=O)[C@@H](NC(=O)[C@H](Cc1ccccc1)NC(=O)[C@H](CC(=O)O)NC(=O)[C@H](C)NC(=O)[C@H](C)NC(=O)[C@H](CCCNC(=N)N)NC(=O)[C@H](CCCNC(=N)N)NC(=O)C(C)(C)NC(=O)[C@H](CC(=O)O)NC(=O)[C@H](CC(C)C)NC(=O)[C@H](Cc1ccc(O)cc1)NC(=O)[C@H](CCCCN)NC(=O)[C@H](CO)NC(=O)[C@H](Cc1ccc(O)cc1)NC(=O)[C@H](CC(=O)O)NC(=O)[C@H](CO)NC(=O)[C@@H](NC(=O)[C@H](Cc1ccccc1)NC(=O)[C@@H](NC(=O)CNC(=O)[C@H](CCNC(C)=O)NC(=O)[C@H](CO)NC(=O)[C@@H](N)Cc1c[nH]cn1)[C@@H](C)O)[C@@H](C)O)C(C)C)C(=O)N[C@@H](CC(=O)O)C(=O)N[C@@H](CCC(=O)O)C(=O)O` [SEQ ID NO: 69], in series [3] (Table 7), the “% activity*” value was 86%.
